Results as given in patent US7629457B2, “Method for producing cytosine nucleoside compounds” (priority 2001, dated 2009).

Assays:
[1] = target: T1, PNP (purine nucleoside phosphorylase) (Escherichia coli, UniProt P0ABP8); assay: PNP residual activity of MT-10905 cell mass suspension after processing with organic solvent; assay type: biochemical; conditions: for PNP Activity: organic solvent 50%
T1 construct: expressed in transfected cells; host or cells: E. coli DH5alpha transformed with plasmid pUC-PNP73 (strain MT-10905), whole cell mass suspension
T1 sequence (P0ABP8 2-239): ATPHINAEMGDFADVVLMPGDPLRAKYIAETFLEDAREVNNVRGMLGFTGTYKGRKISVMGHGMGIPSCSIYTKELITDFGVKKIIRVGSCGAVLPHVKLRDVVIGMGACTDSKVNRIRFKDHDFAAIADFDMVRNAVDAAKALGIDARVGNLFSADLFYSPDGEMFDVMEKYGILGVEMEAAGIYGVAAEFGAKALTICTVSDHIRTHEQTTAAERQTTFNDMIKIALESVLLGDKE
Protocol: The activity of PNP was analyzed after the cell mass suspension was added to 1.0 ml of the reaction solution consisting of 20 mM 2′-deoxyribose-1-phosphate di(monocyclohexylammonium) salt (produced by SIGMA), 5.4 mM adenine (produced by Wako Pure Chemicals, guaranteed grade) and 100 mM tris hydrochloride buffer (pH 8.0), and then treated at 50° C. or 15 minutes. The above reaction was conducted using such an amount of the cell mass as to produce not more than 2 mM deoxyadenosine. The cell mass suspension described above was kept at 30° C. for 1 hour without addition of methanol, and then the activity of PNP of the suspension was set at 100% of relative value. The results shown in Table 2 reveal that the activity of PNP was reduced minimally, but the activity of cdd was eliminated nearly completely.
(§1) The cell mass suspension heat treated for 20 hours in Example 3 was processed with methanol in the same way as in Example 1. The individual activities of the cell mass suspension that was heat treated for 20 hours in Example 3 were set at 100% and the remaining activities were expressed with relative values. The results shown in Table 5 reveal that the activity of PNP was reduced minimally, but the activities of both cod and cdd were eliminated nearly completely.

cytidine deaminase (cdd) = target: T2, cytidine deaminase (cdd) (Escherichia coli, UniProt P0ABF6); assay: cdd (cytidine deaminase) residual activity of MT-10905 cell mass suspension after processing with organic solvent; assay type: biochemical; conditions: for cdd Activity: organic solvent 50%
T2 construct: endogenous in cells; host or cells: E. coli DH5alpha transformed with pUC-PNP73 (strain MT-10905), whole cell mass suspension
T2 sequence (P0ABF6 whole entry): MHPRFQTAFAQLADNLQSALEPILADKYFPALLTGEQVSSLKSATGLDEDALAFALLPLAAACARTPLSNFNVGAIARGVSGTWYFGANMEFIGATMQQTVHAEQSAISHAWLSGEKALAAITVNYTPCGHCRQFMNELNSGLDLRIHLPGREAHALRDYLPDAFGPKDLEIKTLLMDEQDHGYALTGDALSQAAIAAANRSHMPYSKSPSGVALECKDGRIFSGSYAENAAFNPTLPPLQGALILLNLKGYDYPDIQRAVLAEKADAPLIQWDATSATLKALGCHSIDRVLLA
Protocol: To the cell mass suspension of the strain MT-10905 obtained in Reference Example 2 was added a certain amount of methanol so as to attain any one of the methanol concentrations listed in Table 2, and then the suspension was kept at 30° C. for 1 hour. Cytidine deaminase will be expressed as cdd hereafter. The activity of cdd was analyzed after the cell mass suspension was added to 1.0 ml of the reaction solution consisting of 100 mM tris hydrochloride buffer (pH 8.0) and 20 mM cytidine, and then treated at 50° C. for 2 hours.
The cell mass suspension described above was kept at 30° C. for 1 hour without addition of methanol, and then the activity of cdd of the suspension was set at 100% of relative value.
as §1

cytosine deaminase (cod) = assay: cod (cytosine deaminase) residual activity of heat treated MT-10905 cell mass suspension after processing with methanol; assay type: biochemical, Escherichia coli; conditions: cells heat treated 60° C. 20 hours = 100%
Protocol: The cell mass suspension of the strain MT-10905 obtained in Reference Example 2 was kept at 60° C. Cytosine deaminase will be expressed as cod hereafter. The activity of cod was analyzed after the cell mass suspension was added to 100 mM tris hydrochloride buffer (pH 8.0) and 20 mM cytosine, and then treated at 50° C. for 2 hours. The cod activity of the cell mass suspension that was not heat treated was set at 100% and the remaining activities were expressed with relative values. The results shown in Table 4 reveal that the activity of PNP was reduced minimally, but the activity of cod was eliminated nearly completely.
as §1

[2] = MeOH 10%, 30° C. 1 hour, no methanol = 100%
[3] = MeOH 10%, cells heat treated 60° C. 20 hours = 100%
[4] = MeOH 25%, 30° C. 1 hour, no methanol = 100%
[5] = MeOH 25%, cells heat treated 60° C. 20 hours = 100%
[6] = MeOH 50%, 30° C. 1 hour, no methanol = 100%
[7] = MeOH 50%, cells heat treated 60° C. 20 hours = 100%
[8] = MeOH 70%, 30° C. 1 hour, no methanol = 100%
[9] = MeOH 70%, cells heat treated 60° C. 20 hours = 100%
[10] = MeOH 90%, 30° C. 1 hour, no methanol = 100%
[11] = MeOH 90%, cells heat treated 60° C. 20 hours = 100%

**Q.** C[S+](C)[O-] [Dimethyl Sulfoxide] was tested. Which “PNP Activity” value ([1]; 30° C. 1 hour) did it give?
**A.** 96%

**Q.** What about the “cdd Activity” value (cytidine deaminase (cdd); 30° C. 1 hour) of the same molecule?
**A.** 4%

**Q.** For CO [MeOH, methanol], which “cod Residual Activity (%)” value (cytosine deaminase (cod); MeOH 10%) is on record?
**A.** 90%

**Q.** What about the “cod Residual Activity (%)” value (cytosine deaminase (cod); MeOH 25%) of the same molecule?
**A.** 80%

**Q.** What about the “cod Residual Activity (%)” value (cytosine deaminase (cod); MeOH 50%) of the same molecule?
**A.** 50%

**Q.** And the “cod Residual Activity (%)” value (cytosine deaminase (cod); MeOH 70%)?
**A.** 30%

**Q.** What about the “cod Residual Activity (%)” value (cytosine deaminase (cod); MeOH 90%) of the same molecule?
**A.** 10%

**Q.** And the “PNP Residual Activity (%)” value [1, 2]?
**A.** 100%

**Q.** And the “PNP Residual Activity (%)” value [1, 3]?
**A.** 100%

**Q.** And the “PNP Residual Activity (%)” value [1, 4]?
**A.** 99%

**Q.** And the “PNP Residual Activity (%)” value [1, 5]?
**A.** 98%

**Q.** What about the “PNP Residual Activity (%)” value [1, 6] of the same molecule?
**A.** 98%

**Q.** And the “PNP Residual Activity (%)” value [1, 7]?
**A.** 96%

**Q.** And the “PNP Residual Activity (%)” value [1, 8]?
**A.** 97%

**Q.** What about the “PNP Residual Activity (%)” value [1, 9] of the same molecule?
**A.** 96%

**Q.** And the “PNP Residual Activity (%)” value [1, 10]?
**A.** 97%

**Q.** And the “PNP Residual Activity (%)” value [1, 11]?
**A.** 96%

**Q.** What about the “cdd Residual Activity (%)” value (cytidine deaminase (cdd); [2]) of the same molecule?
**A.** 80%

**Q.** And the “cdd Residual Activity (%)” value (cytidine deaminase (cdd); [3])?
**A.** 80%

**Q.** And the “cdd Residual Activity (%)” value (cytidine deaminase (cdd); [4])?
**A.** 50%

**Q.** What about the “cdd Residual Activity (%)” value (cytidine deaminase (cdd); [5]) of the same molecule?
**A.** 50%

**Q.** And the “cdd Residual Activity (%)” value (cytidine deaminase (cdd); [6])?
**A.** 10%

**Q.** What about the “cdd Residual Activity (%)” value (cytidine deaminase (cdd); [7]) of the same molecule?
**A.** 10%

**Q.** And the “cdd Residual Activity (%)” value (cytidine deaminase (cdd); [8])?
**A.** 0.5%

**Q.** What about the “cdd Residual Activity (%)” value (cytidine deaminase (cdd); [9]) of the same molecule?
**A.** 0.5%

**Q.** What about the “cdd Residual Activity (%)” value (cytidine deaminase (cdd); [10]) of the same molecule?
**A.** 0.1%

**Q.** And the “cdd Residual Activity (%)” value (cytidine deaminase (cdd); [11])?
**A.** 0.1%

**Q.** How did the “PNP Activity” value ([1]; 30° C. 1 hour) turn out when CN(C)C=O [N,N-Dimethylformamide] was run?
**A.** 97%

**Q.** And the “cdd Activity” value (cytidine deaminase (cdd); 30° C. 1 hour)?
**A.** 5%

**Q.** For CN1CCN(C)C1=O [N,N-Dimethylimidazolidinone], which “PNP Activity” value ([1]; 30° C. 1 hour) is on record?
**A.** 95%

**Q.** What about the “cdd Activity” value (cytidine deaminase (cdd); 30° C. 1 hour) of the same molecule?
**A.** 4%
